# Results published in patent US20160128988A1, “COMBINATIONS FOR THE TREATMENT OF CANCER COMPRISING A MPS-1 KINASE INHIBITOR AND A MITOTIC INHIBITOR” (BAYER PHARMA AKTIENGESELLSCHAFT, priority 2013, published 2016).
# Legend:
# [1] = tested on: cisplatin-resistant ovarian cancer cells A2780cis; experiment: Mode of action: histopathology of A2780cis tumors after treatment; settings: Compound A1 single agent 2.5 mg/kg PO 2QD 2 days on/5 days off, samples 24 hours after first administration
# Protocol: To explain in vivo the mode of action of an Mps-1 kinase inhibitor in single-agent treatment and combination treatment with a taxane, female NMRI (Naval Medical Research Institute) nude mice were implanted with cisplatin-resistant ovarian cancer cells A2780cis.
# Paclitaxel was administered IV (intravenous(ly)) QW (once per week (meaning the 1 day on/6 days off treatment schedule)) at its MTD (24 mg/kg) in single-agent and combination treatments. […] Tumors were embedded in paraffin, sections were prepared and stained with hematoxylin & eosin for histopathological analysis.
# [2] = tested on: human glioblastoma model U87 MG; experiment: Combination with vincristine in human glioblastoma model U87 MG (intracerebral); format: in vivo, nude mice
# Protocol: The study was designed to determine the response of this glioblastoma model to the treatment with the investigational Compound A1 and vincristine, both alone at a fixed dose, and vincristine in combination with two different doses, both lower than that of Compound A1 used in the monotherapy schedule. The size of the glioblastoma was used as read out parameter for response.
# The cell culture derived human xenograft U87 MG was initiated by transplantation of the tumor cells into the left hemisphere of the mouse brain. Treatment was done in three cycles between day 3 and day 19. Mice were sacrificed at day 24, the brain isolated and shock frozen in 2 methyl-butane. Tumor size were determined as measure for tumor growth inhibition from cryo-slizes after staining.
# [3] = tested on: MDA-MB 231 human triple-negative breast cancer xenograft tumors
# Protocol: The effect of combination treatment of an Mps-1 kinase inhibitor (Compound A1) and paclitaxel was studied in the MDA-MB 231 human triple-negative (no expression of Her2/neu, progesterone receptor, estrogen receptor) xenograft model in nude mice.
# Paclitaxel was applied intravenously once per week upon its respective MTD. Substances were formulated in optimal vehicles to achieve solutions. Animal body weight and tumor size were determined three times weekly. […] For combination treatment, Compound A1 and paclitaxel were applied at the same day within a time frame of 4 hours. Animals of control and monotherapy group (Compound A1 only) were treated for a duration of 28 days. Animals of paclitaxel monotherapy and paclitaxel/Mps-1 kinase inhibitor treatment groups were treated for a duration of 50 days. At the end of the study after one final treatment plasma and tumors were sampled for PK analysis and final tumor weight was determined.
# MDA-MB 231 human breast cancer cells were implanted s.c. into nude mice on day 0. […] Compound A1 was administered orally (p.o.) upon 1 mg/kg twice daily (2QD) for 2 days on/5 days off (2 on/5 off) in monotherapy and in combination with paclitaxel. Paclitaxel was administered intravenously (i.v.) upon 20 mg/kg once daily (QD) once per week (1 on/6 off) in monotherapy and combination therapy. Tumor growth was monitored by determination of the tumor area using calliper measurement three times weekly. FIG. 3A: Time course of tumor growth. FIG. 3B: Weight of tumors in paclitaxel/Mps-1 kinase inhibitor combination group at the end of the study at day 73 after tumor cell inoculation. FIG. 3C: Time course of animal body weight change during the course of the study.
# [4] = day 24, single agents: Gr. B Compound A1 2.5 mg/kg p.o., Gr. C Vincristine 0.75 mg/kg i.p.
smiles,measurement,setting,value
COc1cc(S(C)(=O)=O)ccc1Nc1nc2ccc(-c3ccc(NC(=O)[C@H](C)c4ccc(F)cc4)cc3)cn2n1 [Compound A1],histopathological phenotype of tumor tissue,[1],"induction of a pleomorphic phenotype, including multinuclearity"
same,tumor growth inhibition (in words),"[2]; Compound A1 single drug 2.5 mg/kg, combination with vincristine",no inhibitory effect
same,"BWC [%] (at day), nadir of body weight",[2]; Gr. B: Compound A1 2.5 mg/kg p.o. BIDx2x3,−7.7 (d24) %
same,Brain tumor inside [mm^2],"[2]; day 24, single agents: Gr. B Compound A1 2.5 mg/kg p.o. BIDx2x3, Gr. C Vincristine 0.75 mg/kg i.p. 1xqWx3",15.89 +/− 9.93 mm^2
same,Brain tumor outside [mm^2],[2]; [4],5.50 +/− 4.09 mm^2
same,Brain tumor total [mm^2],[2]; [4],20.64 +/− 12.14 mm^2
same,T/C (inside T) [%],[2]; [4],91.3%
same,Fatal Tox,"[3]; Compound A1 1 mg/kg 2QD 2on/5off p.o., paclitaxel 20 mg/kg QD 1on/6off i.v.",0/10
same,anti-tumor efficacy (in words),"[3]; Compound A1 1 mg/kg 2QD p.o. (28 treatment days), combination with paclitaxel 20 mg/kg i.v. (50 treatment days)",no effect on tumor growth
same,tolerability (in words),"[3]; Compound A1 1 mg/kg 2QD p.o., paclitaxel 20 mg/kg i.v.",well tolerated without critical body weight loss or toxicities
same,T/C weight,"[3]; mean final tumor weight, Compound A1 1 mg/kg 2QD 2on/5off p.o.",0.92
same,T/C area,"[3]; relative mean tumor area, 28 treatment days, Compound A1 1 mg/kg 2QD 2on/5off p.o., paclitaxel 20 mg/kg QD 1on/6off i.v.",0.91
